Test results from patent US10023592B2, “Bromodomain inhibitors” (Celgene Quanticel Research, Inc., priority 2013, dated 2018).

Experiments:
[1] = target: BRD4(BD1) (Homo sapiens (Human), UniProt O60885); test: In vitro enzyme inhibition assay (BRD4 AlphaScreen); assay type: binding; details: in vitro enzyme inhibition assay
Procedure, shortened: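 AlphaScreen proximity readout, using streptavidin donor and Ni-chelate acceptor beads at 5 μg/mL final, monitors biotin-H4 tetraacetylated peptide interaction with purified His-tagged BRD4.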

[2] = tested on: Raji, human Burkitts lymphoma cells; test: Cell-MTS proliferation assay, Raji; assay type: cell-based; details: Homo sapiens, Raji; Cell-MTS proliferation, 168 hr
Procedure, shortened: (§1)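 Cells were seeded per 96-well at densities giving ~90% confluence by day 7 (Raji 15,000, HL-60 5,000, NCI-H460 3,000) and dosed 24 hr later with an 11-point dilution, 100 μM to 2.0 nM final. Seven-day MTS colorimetric read at OD490; IC50 from background-subtracted, DMSO-normalised values.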

[3] = tested on: NCI-H460, human non-small cell lung cancer cells; test: Cell-MTS proliferation assay, NCI-H460; assay type: cell-based; details: Homo sapiens, NCI-H460; Cell-MTS proliferation, 168 hr
Procedure, shortened: as §1

[4] = tested on: HL-60, human proleukemia cells; test: Cell-MTS proliferation assay, HL-60; assay type: cell-based; details: Homo sapiens, HL-60; Cell-MTS proliferation, 168 hr
Procedure, shortened: as §1

SMILES | IC50 [1] | IC50 [2] | IC50 [3] | IC50 [4]
Cn1cc(-c2ccc3c(=O)n(C)cc(-c4nc(CS(C)(=O)=O)ncc4OCC4CC4)c3c2)cn1 [Example 145, 4-[5-(cyclopropylmethoxy)-2-(methylsulfonylmethyl)pyrimidin-4-yl]-2-methyl-6-(1-methylpyrazol-4-yl)isoquinolin-1-one] | < 500 nM | 500 to 5000 nM | > 5000 nM | < 500 nM
Cc1cc(-c2nc(S(C)(=O)=O)ncc2Oc2ccc(F)cc2F)cn(C)c1=O [Example 149, 5-[5-(2,4-difluorophenoxy)-2-methylsulfonylpyrimidin-4-yl]-1,3-dimethylpyridin-2-one] | 500 to 5000 nM | > 5000 nM | > 5000 nM | > 5000 nM
COc1cc(-c2nc(S(C)(=O)=O)ncc2Oc2ccc(F)cc2F)cn(C)c1=O [Example 150, 5-[5-(2,4-difluorophenoxy)-2-methylsulfonylpyrimidin-4-yl]-3-methoxy-1-methylpyridin-2-one] | < 500 nM | 500 to 5000 nM | > 5000 nM | 500 to 5000 nM
Cn1cc(-c2nc(NS(C)(=O)=O)ncc2OCC2CC2)c2ccccc2c1=O [Example 152, N-[5-(cyclopropylmethoxy)-4-(2-methyl-1-oxoisoquinolin-4-yl)pyrimidin-2-yl]methanesulfonamide] | < 500 nM | < 500 nM | > 5000 nM | < 500 nM
Cc1cc(-c2nc(NS(C)(=O)=O)ncc2OCC2CC2)cn(C)c1=O [Example 153, N-[5-(cyclopropylmethoxy)-4-(1,5-dimethyl-6-oxopyridin-3-yl)pyrimidin-2-yl]methanesulfonamide] | < 500 nM | 500 to 5000 nM | > 5000 nM | 500 to 5000 nM
Cn1cc(-c2ccc3c(=O)n(C)cc(-c4nc(NS(C)(=O)=O)ncc4OCC4CC4)c3c2)cn1 [Example 154, N-[5-(cyclopropylmethoxy)-4-[2-methyl-6-(1-methylpyrazol-4-yl)-1-oxoisoquinolin-4-yl]pyrimidin-2-yl]methanesulfonamide] | < 500 nM | < 500 nM | > 5000 nM | < 500 nM
CCS(=O)(=O)Nc1ncc(OCC2CC2)c(-c2cn(C)c(=O)c3ccccc23)n1 [Example 155, N-[5-(cyclopropylmethoxy)-4-(2-methyl-1-oxoisoquinolin-4-yl)pyrimidin-2-yl]ethanesulfonamide] | < 500 nM | < 500 nM | > 5000 nM | < 500 nM
CCS(=O)(=O)Nc1ncc(OCC2CC2)c(-c2cn(C)c(=O)c3ccc(F)cc23)n1 [Example 157, N-[5-(cyclopropylmethoxy)-4-(6-fluoro-2-methyl-1-oxoisoquinolin-4-yl)pyrimidin-2-yl]ethanesulfonamide] | < 500 nM | < 500 nM | > 5000 nM | < 500 nM
Cn1cc(-c2nc(NS(C)(=O)=O)ncc2OCC2CC2)c2ccc(F)cc2c1=O [Example 158, N-[5-(cyclopropylmethoxy)-4-(7-fluoro-2-methyl-1-oxoisoquinolin-4-yl)pyrimidin-2-yl]methanesulfonamide] | < 500 nM | < 500 nM | > 5000 nM | < 500 nM
Cn1cc(-c2nc(NS(C)(=O)=O)ncc2OCC2CC2)c2cc(F)ccc2c1=O [Example 159, N-[5-(cyclopropylmethoxy)-4-(6-fluoro-2-methyl-1-oxoisoquinolin-4-yl)pyrimidin-2-yl]methanesulfonamide] | < 500 nM | < 500 nM | > 5000 nM | < 500 nM
CCS(=O)(=O)Nc1ncc(OCC2CC2)c(-c2cn(C)c(=O)c3cc(F)ccc23)n1 [Example 160, N-[5-(cyclopropylmethoxy)-4-(7-fluoro-2-methyl-1-oxoisoquinolin-4-yl)pyrimidin-2-yl]ethanesulfonamide] | < 500 nM | < 500 nM | > 5000 nM | < 500 nM
CCN(c1ncc(OCC2CC2)c(-c2cn(C)c(=O)c3ccccc23)n1)S(C)(=O)=O [Example 161, N-[5-(cyclopropylmethoxy)-4-(2-methyl-1-oxoisoquinolin-4-yl)pyrimidin-2-yl]-N-ethylmethanesulfonamide] | < 500 nM | < 500 nM | > 5000 nM | < 500 nM
CCN(c1ncc(OCC2CC2)c(-c2cc(C)c(=O)n(C)c2)n1)S(C)(=O)=O [Example 162, N-[5-(cyclopropylmethoxy)-4-(1,5-dimethyl-6-oxopyridin-3-yl)pyrimidin-2-yl]-N-ethylmethanesulfonamide] | < 500 nM | < 500 nM | > 5000 nM | < 500 nM
Cn1cc(-c2nc(NS(C)(=O)=O)ncc2OCC2CC2)c2c(c1=O)CCCC2 [Example 163, N-[5-(cyclopropylmethoxy)-4-(2-methyl-1-oxo-5,6,7,8-tetrahydroisoquinolin-4-yl)pyrimidin-2-yl]methanesulfonamide] | < 500 nM | < 500 nM | > 5000 nM | 500 to 5000 nM
CCS(=O)(=O)Nc1ncc(OCC2CC2)c(-c2cn(C)c(=O)c3c2CCCC3)n1 [Example 164, N-[5-(cyclopropylmethoxy)-4-(2-methyl-1-oxo-5,6,7,8-tetrahydroisoquinolin-4-yl)pyrimidin-2-yl]ethanesulfonamide] | < 500 nM | < 500 nM | > 5000 nM | 500 to 5000 nM
Cc1cc(-c2nc(NS(C)(=O)=O)ncc2Oc2ccc(F)cc2F)cn(C)c1=O [Example 166, N-[5-(2,4-difluorophenoxy)-4-(1,5-dimethyl-6-oxopyridin-3-yl)pyrimidin-2-yl]methanesulfonamide] | < 500 nM | < 500 nM | > 5000 nM | < 500 nM
CCS(=O)(=O)Nc1ncc(Oc2ccc(F)cc2F)c(-c2cc(C)c(=O)n(C)c2)n1 [Example 169, N-[5-(2,4-difluorophenoxy)-4-(1,5-dimethyl-6-oxopyridin-3-yl)pyrimidin-2-yl]ethanesulfonamide] | < 500 nM | < 500 nM | > 5000 nM | < 500 nM
CCS(=O)(=O)Nc1ncc(Oc2ccc(F)cc2F)c(-c2cn(C)c(=O)c3ccccc23)n1 [Example 170, N-[5-(2,4-difluorophenoxy)-4-(2-methyl-1-oxoisoquinolin-4-yl)pyrimidin-2-yl]ethanesulfonamide] | < 500 nM | < 500 nM | > 5000 nM | < 500 nM
Cn1cc(-c2nc(NS(C)(=O)=O)ncc2Oc2ccc(F)cc2F)c2c(c1=O)CCCC2 [Example 172, N-[5-(2,4-difluorophenoxy)-4-(2-methyl-1-oxo-5,6,7,8-tetrahydroisoquinolin-4-yl)pyrimidin-2-yl]methanesulfonamide] | < 500 nM | 500 to 5000 nM | > 5000 nM | 500 to 5000 nM
CCS(=O)(=O)Nc1ncc(Oc2ccc(F)cc2F)c(-c2cn(C)c(=O)c3c2CCCC3)n1 [Example 173, N-[5-(2,4-difluorophenoxy)-4-(2-methyl-1-oxo-5,6,7,8-tetrahydroisoquinolin-4-yl)pyrimidin-2-yl]ethanesulfonamide] | < 500 nM | 500 to 5000 nM | > 5000 nM | 500 to 5000 nM
CCS(=O)(=O)c1ccc(OCC2CC2)c(-c2cn(C)c(=O)c3ccc(F)cc23)c1 [Example 174, 4-[2-(cyclopropylmethoxy)-5-ethylsulfonylphenyl]-6-fluoro-2-methylisoquinolin-1-one] | < 500 nM | < 500 nM | > 5000 nM | < 500 nM
Cn1cc(-c2cc(S(C)(=O)=O)ccc2OC2CCOC2)c2ccccc2c1=O (stereo not shown) [Example 175, 2-methyl-4-[5-methylsulfonyl-2-(oxolan-3-yloxy)phenyl]isoquinolin-1-one] | < 500 nM | < 500 nM | > 5000 nM | < 500 nM
Cn1cc(-c2cc(S(C)(=O)=O)ccc2OC2CCOCC2)c2ccccc2c1=O [Example 176, 2-methyl-4-[5-methylsulfonyl-2-(oxan-4-yloxy)phenyl]isoquinolin-1-one] | < 500 nM | < 500 nM | > 5000 nM | < 500 nM
CCOc1ccc(S(C)(=O)=O)cc1-c1cn(C)c(=O)c2ccccc12 [Example 177, 4-(2-ethoxy-5-methylsulfonylphenyl)-2-methylisoquinolin-1-one] | < 500 nM | 500 to 5000 nM | > 5000 nM | < 500 nM
CCCOc1ccc(S(C)(=O)=O)cc1-c1cn(C)c(=O)c2ccccc12 [Example 178, 2-methyl-4-(5-methylsulfonyl-2-propoxyphenyl)isoquinolin-1-one] | < 500 nM | < 500 nM | > 5000 nM | < 500 nM
Cn1cc(-c2cc(S(C)(=O)=O)ccc2OC2CCCOC2)c2ccccc2c1=O (stereo not shown) [Example 179, 2-methyl-4-[5-methylsulfonyl-2-(oxan-3-yloxy)phenyl]isoquinolin-1-one] | < 500 nM | < 500 nM | > 5000 nM | < 500 nM
Cn1cc(-c2cc(S(C)(=O)=O)ccc2O[C@H]2CC[C@H](O)CC2)c2ccccc2c1=O [Example 180, 4-[2-(trans-4-hydroxycyclohexyl)oxy-5-methylsulfonylphenyl]-2-methylisoquinolin-1-one] | < 500 nM | < 500 nM | > 5000 nM | < 500 nM
CCS(=O)(=O)c1ccc(O[C@H]2CC[C@H](O)CC2)c(-c2cn(C)c(=O)c3ccccc23)c1 [Example 181, 4-[5-ethylsulfonyl-2-(trans-4-hydroxycyclohexyl)oxyphenyl]-2-methylisoquinolin-1-one] | < 500 nM | < 500 nM | > 5000 nM | < 500 nM
